# Measurements taken from patent publication US4532255A, “Amidine compounds and anticomplement agent comprising same” (Torii & Co., Ltd., priority 1980, dated 1985).
# Like-named read-outs stand apart in the source and are kept apart here.
# How the values were obtained:
# Trypsin = molecular target: T1, Trypsin (Bos taurus, UniProt P00760); test: Anti-trypsin activity (hydrolysis of TAME); format: biochemical; conditions: for IC50: molar concentration inhibiting 50% of TAME hydrolysis, read-out: Trypsin ID50
# T1 sequence (P00760 24-246): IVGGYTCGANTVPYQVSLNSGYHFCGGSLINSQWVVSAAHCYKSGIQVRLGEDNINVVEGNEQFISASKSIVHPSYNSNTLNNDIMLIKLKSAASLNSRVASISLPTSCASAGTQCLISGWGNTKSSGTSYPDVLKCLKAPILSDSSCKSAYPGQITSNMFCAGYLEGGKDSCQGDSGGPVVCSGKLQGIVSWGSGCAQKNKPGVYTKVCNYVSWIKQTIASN
# Method: (§1) The anti-trypsin, anti-plasmin, anti-kallikrein and anti-thrombin activities were determined according to the method of Muramatsu et al. [M. Muramatsu, T. Onishi, S. Makino, Y. Hayashi and S. Fujii, J. of Biochem., 58, 214 (1965)]. […] The compound No. corresponds to the compound number shown in Examples.
# Plasmin = Plasmin (Homo sapiens, UniProt P00747); test: Anti-plasmin activity (hydrolysis of TAME); format: biochemical; conditions: for IC50: molar concentration inhibiting 50% of TAME hydrolysis, read-out: Plasmin ID50; for inhibition at 10 µM: at 1×10^-5 M, read-out: Plasmin percentage inhibition
# Method: as §1
# Thrombin = Thrombin (Homo sapiens, UniProt P00734); test: biochemical; conditions: for IC50: molar concentration inhibiting 50% of TAME hydrolysis, read-out: Thrombin ID50; for inhibition at 10 µM: at 1×10^-5 M, read-out: Thrombin percentage inhibition
# Method: (§2) The anti-trypsin, anti-plasmin, anti-kallikrein and anti-thrombin activities were determined according to the method of Muramatsu et al. [M. Muramatsu, T. Onishi, S. Makino, Y. Hayashi and S. Fujii, J. of Biochem., 58, 214 (1965)]. The data summarized in Table 1 are expressed in terms of molar concentration (ID50) of the test compound which inhibits 50% of the activity of each enzyme to hydrolyze TAME (tosylalginine methyl ester). The compound No. corresponds to the compound number shown in Examples.
# C1r = molecular target: T2, C1r (Homo sapiens, UniProt P00736); test: Anti-C1 esterase (C1r) activity (hydrolysis of AAME); format: biochemical; conditions: for IC50: AAME hydrolysis, read-out: Anti-C1 activity, C1r ID50; for inhibition at 10 µM: at 1×10^-5 M, read-out: Anti-C1 activity, C1r percent inhibition
# T2 sequence (P00736 464-705 limits assumed): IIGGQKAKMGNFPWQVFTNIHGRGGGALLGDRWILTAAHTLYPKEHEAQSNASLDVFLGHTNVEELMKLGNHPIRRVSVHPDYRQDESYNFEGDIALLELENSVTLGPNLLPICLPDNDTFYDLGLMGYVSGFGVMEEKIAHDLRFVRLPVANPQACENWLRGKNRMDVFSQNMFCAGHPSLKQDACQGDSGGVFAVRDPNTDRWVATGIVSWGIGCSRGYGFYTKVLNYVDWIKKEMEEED
# T2 sequence (P00736 18-463 partner limits assumed): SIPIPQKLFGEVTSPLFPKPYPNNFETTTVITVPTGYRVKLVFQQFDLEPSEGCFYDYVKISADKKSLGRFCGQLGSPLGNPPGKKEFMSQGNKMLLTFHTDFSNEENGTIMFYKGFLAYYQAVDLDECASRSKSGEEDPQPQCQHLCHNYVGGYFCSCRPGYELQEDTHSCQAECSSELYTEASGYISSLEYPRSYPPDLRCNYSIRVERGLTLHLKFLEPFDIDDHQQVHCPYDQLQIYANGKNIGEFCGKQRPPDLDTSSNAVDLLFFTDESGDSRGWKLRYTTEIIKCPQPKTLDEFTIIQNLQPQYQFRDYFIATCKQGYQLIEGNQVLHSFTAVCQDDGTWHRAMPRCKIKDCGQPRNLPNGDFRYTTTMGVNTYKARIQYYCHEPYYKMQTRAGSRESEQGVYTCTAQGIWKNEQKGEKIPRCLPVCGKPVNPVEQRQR
# Method: The anti-Cl esterase ([…]) activity was determined according to the method of Okamura et al. [K. Okamura, M. Muramatsu and S. Fujii, Biochem. Biophys.
# C1s = molecular target: T3, C1s (Homo sapiens, UniProt P09871); test: biochemical
# T3 sequence (P09871 438-688 limits assumed): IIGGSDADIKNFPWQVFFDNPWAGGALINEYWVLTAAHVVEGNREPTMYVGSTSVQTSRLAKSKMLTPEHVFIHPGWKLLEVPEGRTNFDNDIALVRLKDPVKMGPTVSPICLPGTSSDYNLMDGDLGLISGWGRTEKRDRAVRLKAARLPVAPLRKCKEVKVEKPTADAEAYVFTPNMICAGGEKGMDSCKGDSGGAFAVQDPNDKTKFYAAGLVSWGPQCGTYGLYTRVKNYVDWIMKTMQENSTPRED
# T3 sequence (P09871 16-437 partner limits assumed): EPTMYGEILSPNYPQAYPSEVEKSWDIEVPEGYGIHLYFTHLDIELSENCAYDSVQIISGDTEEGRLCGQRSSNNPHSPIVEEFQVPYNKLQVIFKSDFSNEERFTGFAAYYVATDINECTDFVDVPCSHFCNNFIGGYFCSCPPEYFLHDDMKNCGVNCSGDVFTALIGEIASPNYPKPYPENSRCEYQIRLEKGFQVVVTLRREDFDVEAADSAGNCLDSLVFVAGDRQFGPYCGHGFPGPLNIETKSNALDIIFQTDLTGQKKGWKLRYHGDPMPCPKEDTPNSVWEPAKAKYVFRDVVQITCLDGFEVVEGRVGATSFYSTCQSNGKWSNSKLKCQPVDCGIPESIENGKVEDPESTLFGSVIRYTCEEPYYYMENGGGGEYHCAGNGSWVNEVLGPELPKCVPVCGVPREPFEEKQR
# Method: The anti-Cl esterase (Clr, Cls) activity was determined according to the method of Okamura et al. [K. Okamura, M. Muramatsu and S. Fujii, Biochem. Biophys. […] The figures in Table 2 have the following meanings:
# Cls: Molar concentration of the test compound which inhibits 50% of the ability of Cls to hydrolyse ATEE (acetyltyrosin ethyl ester).
# [1] = test system: complement mediated hemolysis; test: Inhibition of complement mediated hemolysis; format: cell-based
# Method: The principle of this method is based on the fact that hemolysis is caused by the activation of complement, when the latter is added to a complex (immune complex) of erythrocytes and the antibody thereof. The degree of hemolysis varies in proportion to the amount of complement added. Therefore, when a known amount of complement admixed with a C1 esterase inhibitor is used, the hemolysis must be suppressed in proportion to the inhibitory activity.
# Kallikrein [2] = test: Anti-kallikrein activity (hydrolysis of TAME); format: biochemical; conditions: at 1×10^-5 M
# Kallikrein [3] = test: Anti-kallikrein activity (hydrolysis of TAME); format: biochemical; conditions: molar concentration inhibiting 50% of TAME hydrolysis; read-out: Kallikrein ID50
# Method: as §2
# [4] = ATEE hydrolysis, read-out: Anti-C1 activity, C1s ID50
# Plasmin, sequence (P00747 581-810 limits assumed, species assumed): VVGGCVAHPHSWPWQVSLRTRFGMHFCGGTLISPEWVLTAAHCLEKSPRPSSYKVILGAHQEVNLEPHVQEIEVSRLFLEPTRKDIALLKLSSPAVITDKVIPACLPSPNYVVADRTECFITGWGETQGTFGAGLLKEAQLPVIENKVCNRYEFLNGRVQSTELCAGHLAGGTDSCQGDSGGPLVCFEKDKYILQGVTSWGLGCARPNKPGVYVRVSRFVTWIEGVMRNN
# Plasmin, sequence (P00747 97-580 partner limits assumed, species assumed): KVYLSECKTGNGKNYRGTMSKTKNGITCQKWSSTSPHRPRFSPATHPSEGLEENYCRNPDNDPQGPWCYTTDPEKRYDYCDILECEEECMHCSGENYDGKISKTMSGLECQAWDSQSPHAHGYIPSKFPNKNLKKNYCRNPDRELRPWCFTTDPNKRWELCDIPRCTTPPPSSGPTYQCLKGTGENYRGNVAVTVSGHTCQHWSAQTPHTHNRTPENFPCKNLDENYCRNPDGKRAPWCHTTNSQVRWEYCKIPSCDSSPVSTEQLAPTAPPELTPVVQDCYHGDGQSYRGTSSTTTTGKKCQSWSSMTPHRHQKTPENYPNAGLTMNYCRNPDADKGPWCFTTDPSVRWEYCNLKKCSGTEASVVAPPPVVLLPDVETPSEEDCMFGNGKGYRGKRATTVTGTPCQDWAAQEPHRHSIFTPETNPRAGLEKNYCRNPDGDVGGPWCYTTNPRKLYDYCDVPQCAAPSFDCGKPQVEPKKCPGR
SMILES,IC50 (Trypsin),IC50 (Plasmin),IC50 (Thrombin),IC50 (C1r),IC50 (C1s; [4]),Inhibition of complement mediated hemolysis (%) ([1]; 1 × 10^-4),Inhibition of complement mediated hemolysis (%) ([1]; 1 × 10^-5),Inhibition of complement mediated hemolysis (%) ([1]; 1 × 10^-6),Inhibition of complement mediated hemolysis (%) ([1]; 1 × 10^-7),Kallikrein percentage inhibition (Kallikrein [2]),inhibition at 10 µM (Plasmin),inhibition at 10 µM (Thrombin),IC50 (C1s),IC50 (Kallikrein [3]),"inhibition at 10 µM (Trypsin; at 1×10^-5 M, read-out: Trypsin percentage inhibition)",inhibition at 10 µM (C1r)
"Cc1cccc(C(=O)Oc2ccc3cc(C(=N)N)ccc3c2)c1 [Compound 3, 6-amidino-2-naphthyl 3-methylbenzoate]",2 µM,4 µM,4 µM,1 µM,2 µM,97%,60%,8%,11%,38%,,,,,,
COc1ccc(C(=O)Oc2ccc3cc(C(=N)N)ccc3c2)cc1 [Compound 7],,3 µM,3 µM,0.1 µM,0.2 µM,51%,78%,21%,0%,46%,,,,,,
CCCCOc1ccc(C(=O)Oc2ccc3cc(C(=N)N)ccc3c2)cc1 [Compound 8],0.04 µM,,,10 µM,0.4 µM,46%,18%,23%,,43%,17%,29%,,,,
N=C(N)c1ccc2cc(OC(=O)c3ccc(OCc4ccccc4)cc3)ccc2c1 [Compound 9],0.04 µM,,,,,,,,,19%,48%,20%,,,,
N=C(N)c1ccc2cc(OC(=O)c3ccc(F)cc3)ccc2c1 [Compound 15],3 µM,1 µM,2 µM,,,98%,89%,23%,2%,38%,,,0.3 µM,,,
N=C(N)c1ccc2cc(OC(=O)c3ccc(Br)cc3)ccc2c1 [Compound 17],4 µM,2 µM,,0.7 µM,0.5 µM,98%,72%,9%,0%,23%,,,,,,
N=C(N)c1ccc2cc(OC(=O)c3ccc(S(N)(=O)=O)cc3)ccc2c1 [Compound 29],10 µM,2 µM,2 µM,,,,,,,42%,,,,,,
N=C(N)c1ccc2cc(OC(=O)c3ccc(C=O)cc3)ccc2c1 [Compound 31],4 µM,0.4 µM,0.3 µM,2 µM,3 µM,98%,99%,92%,76%,,,,,> 10 µM,,
COc1ccc(CCC(=O)Oc2ccc3cc(C(=N)N)ccc3c2)cc1OC [Compound 49],2 µM,4 µM,,,,,,,,29%,,17%,,,,
N=C(N)Nc1ccc(CCC(=O)Oc2ccc3cc(C(=N)N)ccc3c2)cc1 [Compound 52],,> 10 µM,> 10 µM,> 10 µM,> 10 µM,48%,15%,6%,14%,,,,,> 10 µM,33%,
"N=C(N)c1ccc2cc(OC(=O)C=Cc3ccccc3)ccc2c1 [Compound 57, 6-amidino-2-naphthyl cinnamate]",5 µM,3 µM,10 µM,30 µM,3 µM,,80%,24%,23%,,,,,50 µM,,
"N=C(N)c1ccc2cc(OC(=O)C=Cc3ccc(N)cc3)ccc2c1 [Compound 63, 6-amidino-2-naphthyl 4-aminocinnamate]",2 µM,8 µM,> 10 µM,,0.4 µM,73%,37%,26%,42%,,,,,4 µM,,15%
"N=C(N)Nc1ccc(C=CC(=O)Oc2ccc3cc(C(=N)N)ccc3c2)cc1 [Compound 64, 6-amidino-2-naphthyl 4-guanidinocinnamate]",2 µM,10 µM,> 10 µM,,3 µM,,39%,17%,19%,,,,,4 µM,,14%
N=C(N)c1ccc2cc(OC(=O)C=Cc3cccc(C(F)(F)F)c3)ccc2c1 [Compound 66],6 µM,0.5 µM,,6 µM,4 µM,60%,6%,1%,1%,,,21%,,> 10 µM,,
COc1ccccc1OCC(=O)Oc1ccc2cc(C(=N)N)ccc2c1 [Compound 68],> 10 µM,> 10 µM,10 µM,> 10 µM,> 10 µM,91%,4%,0%,0%,,,,,> 10 µM,,
